Results as given in ChEMBL document CHEMBL1134040, “Allyl and propargyl substituted penam sulfones as versatile intermediates toward the syntheses of new beta-lactamase inhibitors” (Bioorg Med Chem Lett, 2001).
≈ marks a conversion by molar mass, not a printed value.

Tests used:
Beta-lactamase TEM = Beta-lactamase TEM (Escherichia coli, UniProt P62593); assay: In vitro inhibitory concentration against TEM-1 enzyme
Beta-lactamase = Beta-lactamase (Escherichia coli K-12, UniProt P00811); assay: In vitro inhibitory concentration against AmpC enzyme
Chain of Beta-lactamase (P00811 whole entry): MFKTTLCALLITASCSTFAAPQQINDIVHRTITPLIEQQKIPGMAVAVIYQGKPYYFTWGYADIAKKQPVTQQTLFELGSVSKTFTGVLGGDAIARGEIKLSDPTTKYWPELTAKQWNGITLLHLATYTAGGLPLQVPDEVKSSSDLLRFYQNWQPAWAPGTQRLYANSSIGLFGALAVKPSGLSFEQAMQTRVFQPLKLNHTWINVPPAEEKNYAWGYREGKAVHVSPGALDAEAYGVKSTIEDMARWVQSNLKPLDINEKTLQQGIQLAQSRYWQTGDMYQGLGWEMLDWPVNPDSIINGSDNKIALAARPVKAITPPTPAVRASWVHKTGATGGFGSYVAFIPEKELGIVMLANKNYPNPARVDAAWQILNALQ

[1] = target: Metallo-beta-lactamase type 2 (Bacteroides fragilis, UniProt P25910); assay: In vitro inhibitory concentration against CCRA enzyme
Chain of Metallo-beta-lactamase type 2 (P25910 whole entry): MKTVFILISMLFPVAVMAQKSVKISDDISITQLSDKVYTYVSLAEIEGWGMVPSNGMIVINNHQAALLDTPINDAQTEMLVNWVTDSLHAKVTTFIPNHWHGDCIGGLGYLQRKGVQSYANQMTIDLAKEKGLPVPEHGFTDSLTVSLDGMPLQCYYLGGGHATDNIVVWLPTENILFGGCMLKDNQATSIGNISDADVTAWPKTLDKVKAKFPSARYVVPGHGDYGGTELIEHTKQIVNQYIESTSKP

Escherichia coli [2] = assay: In vitro antibacterial activity against TEM-1 producing Escherichia coli (GC2206); assay type: functional
Escherichia coli [3] = assay: In vitro antibacterial activity against AmpC producing Escherichia coli (GC2894); assay type: functional

Chain of Beta-lactamase TEM (P62593 whole entry): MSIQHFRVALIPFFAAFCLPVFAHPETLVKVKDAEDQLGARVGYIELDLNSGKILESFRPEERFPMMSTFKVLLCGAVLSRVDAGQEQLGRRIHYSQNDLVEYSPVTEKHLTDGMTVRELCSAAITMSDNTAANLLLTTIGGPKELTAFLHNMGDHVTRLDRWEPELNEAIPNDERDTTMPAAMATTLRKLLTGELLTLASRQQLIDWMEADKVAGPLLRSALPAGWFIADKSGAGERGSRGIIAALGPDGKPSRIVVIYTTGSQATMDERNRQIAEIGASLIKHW

Compound	IC50 (Beta-lactamase TEM) [µM]	IC50 (Beta-lactamase) [µM]	IC50 [1] [µM]	MIC (Escherichia coli [2]) [µg/mL]	MIC (Escherichia coli [3]) [µg/mL]
CC1(C)[C@H](C(=O)O)N2C(=O)[C@@H](Cc3cn(-c4ccc(F)cc4)nn3)[C@H]2S1(=O)=O	1.6	3	4.1		
C[C@]1(Cn2ccnn2)[C@H](C(=O)O)N2C(=O)C[C@H]2S1(=O)=O [TAZOBACTAM]				2 (≈ 6.66 µM)	16 (≈ 53.3 µM)
CC1(C)[C@H](C(=O)O)N2C(=O)[C@@H](Cc3cn(CC4CCCN4)nn3)[C@H]2S1(=O)=O (some centres undefined)	7.9	5.2	22		
CC(=O)/C=C/CC1C(=O)N2[C@@H](C(=O)O)C(C)(C)S(=O)(=O)[C@@H]12 (some centres undefined)	6.5	40	3		
CON(C)C(=O)/C=C/CC1C(=O)N2[C@@H](C(=O)O)C(C)(C)S(=O)(=O)[C@H]12 (some centres undefined)		17	> 100		
CC1(C)[C@H](C(=O)O)N2C(=O)[C@@H](Cc3cn(-c4ccccc4)nn3)[C@H]2S1(=O)=O	1	3.4	> 100		
CC1(C)[C@H](C(=O)O)N2C(=O)C(C/C=C/C=O)[C@H]2S1(=O)=O (some centres undefined)	12	17	> 100		
CC1(C)[C@H](C(=O)O)N2C(=O)[C@@H](Cc3cn(-c4ccc(N)cc4)nn3)[C@H]2S1(=O)=O	0.6	1.4	1.8	32 (≈ 78.9 µM)	64 (≈ 158 µM)
CC(=O)/C=C/CC1C(=O)N2[C@@H](C(=O)O)C(C)(C)S(=O)(=O)[C@H]12 (some centres undefined)	8.4	100	71		
COC(=O)/C=C/CC1C(=O)N2[C@@H](C(=O)O)C(C)(C)S(=O)(=O)[C@H]12 (some centres undefined)	8.6	29	> 100		
CCN1CCN(C(=O)N[C@@H](C(=O)N[C@@H]2C(=O)N3[C@@H]2SC(C)(C)[C@@H]3C(=O)O)c2ccccc2)C(=O)C1=O [PIPERACILLIN]				> 64	> 64
CC1(C)[C@H](C(=O)O)N2C(=O)[C@@H](Cc3cn(-c4ccc(O)cc4)nn3)[C@H]2S1(=O)=O	0.7	2.3	2.1		
CC1(C)[C@H](C(=O)O)N2C(=O)C(C/C=C/C#N)[C@@H]2S1(=O)=O (some centres undefined)	24	> 100	3.1		
CC1(C)[C@H](C(=O)O)N2C(=O)[C@@H](Cc3cn(CC(N)Cc4ccc(O)cc4)nn3)[C@H]2S1(=O)=O (some centres undefined)	15	6.6	24		
COC(=O)/C=C/CC1C(=O)N2[C@@H](C(=O)O)C(C)(C)S(=O)(=O)[C@@H]12 (some centres undefined)	2.8	64	1.4		
